Assay results: patent US6106866A, “In vivo agents comprising cationic drugs, peptides and metal chelators with acidic saccharides and glycosaminoglycans, giving improved site-selective localization, uptake mechanism, sensitivity and kinetic-spatial profiles, including tumor sites” (Access Pharmaceuticals, Inc., priority 1995, dated 2000)
“Also recorded” adds a separate entry of the source.

Legend:
[1] = Acute in vivo toxicity of doxorubicin:dermatan sulfate vs standard doxorubicin (day of death); set-up: species or system male Balb/c mice; conditions: 22.5 mg/Kg i.v.
Source text: The days of death are: doxorubicin:DS: modal day=6, mean=5.5±0.9 SE; standard doxorubicin: modal day=day 5, mean=4.8±0.5SE.

AT-1 prostate carcinomas = assay: Acute in vivo tumor localization and tumor-cell internalization by fluorescence microscopy; set-up: species or system Copenhagen rats
Protocol: FIG. 21A. Frozen 8-micron thick section of prostate adenocarcinoma (outer 2/3 of tumor of ca. 4 cm diameter), excised from its host rat (Copenhagen strain, syngeneic) 3 hours after intravenous injection of 5 mg/Kg doxorubicin:DS (doxorubicin in association with essentially purified dermatan sulfate, 435 Type, Opocrin) at a weight ratio of 60:40 (doxorubicin to dermatan sulfate), and fluorescence microscopy performed using a rhodamine-type filter to elicit direct fluorescence of the doxorubicin drug substance (see also Example 29). […] This is indicative of high tumor-cell internalization of the doxorubicin drug substance.
The paired-ion doxorubicin:dermatan sulfate (essentially purified dermatan sulfate, 435 Type, Opocrin) of Example 28 (=doxorubicin:DS) and standard doxorubicin liquid (Adria Laboratories) are injected at 5 mg/kg of doxorubicin i.v., into Copenhagen rats with AT-1 prostate carcinomas grown in a skin pouch (to mimic growth at deep organ sites). The rats are sacrificed at 3 hours after injection, the tumors and major organs removed, the cut tumors & organ pieces placed in OCT polymer and frozen at […], and cryostat sections cut at 8 um and coverslipped. Fluorescence microscopy is performed by exciting the sections using a rhodamine-type bandpass filter (at ca. 485 nm--in order to selectively excite doxorubicin) and assessing direct doxorubicin fluorescence (at an emission wavelength greater than 530 nm) to determine the following: […]

parent MCF-7 cell line = assay: Clonigenic tumor-cell killing assay, parent MCF-7 (14C-glucose, Bactec, day 9); format: cell-based; conditions: Homo sapiens, MCF7, 216 h
Source text: (§1) The paired-ion doxorubicin:dermatan sulfate (essentially purified dermatan sulfate, 435 Type, Opocrin) of Example 28 (=doxorubicin:DS), is compared to standard doxorubicin liquid (Adria Laboratories), for tumor-cell killing potency in a clonigenic assay, using the following human breast cancer cell lines: parent MCF-7 cell line and adriamycin/doxorubicin-resistant MCF-7 cell line. For each group, five serial dilutions of each formulation were mixed on day 0, with an appropriate number of cells, growth medium and ^14 C-labelled glucose, the mixture then injected into serum vials pre-gassed with 5% CO2, and the vials incubated at 37° C. (with cells continuously exposed to drug). […] Results are shown in Table 5 for the day of peak counts (day 9): […]

[2] = system: adriamycin/doxorubicin-resistant MCF-7 cell line; assay: Clonigenic tumor-cell killing assay, doxorubicin-resistant MCF-7 (14C-glucose, Bactec, day 9); format: cell-based, human
Source text: as §1

[3] = mouse, in vivo; cited from earlier work

With `COc1cccc2c1C(=O)c1c(O)c3c(c(O)c1C2=O)C[C@@](O)(C(=O)CO)C[C@@H]3O[C@H]1C[C@H](N)[C@H](O)[C@H](C)O1` [Standard doxorubicin] the “modal day of death” value [1] was 5 days, the “mean day of death” value ([1]; ± SE) was 4.8 ± 0.5 days and the “direct drug fluorescence in tumor cells” value (AT-1 prostate carcinomas; 5 mg/Kg i.v., 3 hours) was “markedly lower fluorescence”. For the same compound, the “fluorescence of endothelium / microvessels” value (AT-1 prostate carcinomas; 5 mg/Kg i.v., 3 hours) was “general lack of fluorescence in and around the large tumor microvessel; also recorded: general lack of fluorescence in and around tumor microvessel (image center) and in tumor-cell nuclei”, the “fluorescence of tumor-cell nuclei” value (AT-1 prostate carcinomas; 5 mg/Kg i.v., 3 hours) was “no identifiable fluorescence in the tumor-cell nuclei” and the “Fluorescence near capillaries (scale of 0 to 4+)” value (AT-1 prostate carcinomas; 2/3 of regions) was 0. For the same compound, the “Fluorescence away from capillaries (scale of 0 to 4+)” value (AT-1 prostate carcinomas; Adriamycin PFS: most regions, doxorubicin:DS: ca. 8/10 of regions) was 0, the “Endothelial fluorescence (scale of 0 to 4+)” value (AT-1 prostate carcinomas; rat, in vivo) was 0 and the “Endothelial nuclear fluorescence (scale of 0 to 4+)” value (AT-1 prostate carcinomas; rat, in vivo) was 0. For the same compound, the IC50 (parent MCF-7 cell line) was 20 nM, the IC90 (parent MCF-7 cell line) was 60 nM and the “ability to overcome resistance” value [2] was “unable to do so”. The IC50 ([2]; Homo sapiens, MCF7, 216 h, day 9) was 22300 nM, the IC90 ([2]; day 9) was “not achieved” and the “reported LD90 in mice” value [3] was 22.5 mg/kg.
